Results reported in paper PMC8373063 (2021).

Columns and labels:
[1] = tested on: DNA Seq6 (DNA, single strand) TGAAGGAAGGT; experiment: ITC; details: 100 mM NaCl; 30 mM MES pH 6.1, 5% DMSO, 25 °C
[2] = tested on: RNA Seq4 (immobilised) (RNA, single strand) AAGAAGGAAGGUGC; experiment: SPR, immobilised RNA; details: running buffer not shown; SMN-C2 up to 20 μM
[3] = tested on: RNA Seq6 (RNA, single strand) UGAAGGAAGGU; experiment: fluorescence polarization; details: 100 mM NaCl; 20 mM HEPES, 25 °C; 0.5 μM SMN-C2
[4] = tested on: RNA Seq7 (RNA, single strand) UUAAGGAAGGU; experiment: fluorescence polarization; details: 100 mM NaCl; 20 mM HEPES, 25 °C; 0.5 μM SMN-C2
[5] = tested on: RNA Seq8 (RNA, single strand) UGAAGGAAGUU; experiment: fluorescence polarization; details: 100 mM NaCl; 20 mM HEPES, 25 °C; 0.5 μM SMN-C2
[6] = tested on: RNA Seq9 (RNA, single strand) UUAAGGAAGUU; experiment: fluorescence polarization; details: 100 mM NaCl; 20 mM HEPES, 25 °C; 0.5 μM SMN-C2
[7] = tested on: RNA Seq12 (RNA, single strand) UGAAAGAAGGU; experiment: fluorescence polarization; details: 100 mM NaCl; 20 mM HEPES, 25 °C; 0.5 μM SMN-C2
[8] = tested on: RNA Seq15 (RNA, single strand) UGAAGGAUGGU; experiment: fluorescence polarization; details: 100 mM NaCl; 20 mM HEPES, 25 °C; 0.5 μM SMN-C2
[9] = tested on: RNA Seq16 (RNA, single strand) UGAAGGAAAGU; experiment: fluorescence polarization; details: 100 mM NaCl; 20 mM HEPES, 25 °C; 0.5 μM SMN-C2
[10] = tested on: RNA Seq17 (RNA, single strand) UGAAGGAAGAU; experiment: fluorescence polarization; details: 100 mM NaCl; 20 mM HEPES, 25 °C; 0.5 μM SMN-C2
[11] = tested on: RNA Seq18 (binding site 1 sequence) (RNA, mismatch bulge abasic, pseudouridine at 5 and 6 of strand 1) AUACUUACCU/GGAGGUAAGUCU; experiment: fluorescence polarization; details: 100 mM NaCl; 20 mM HEPES, 25 °C; 0.5 μM SMN-C2
[12] = tested on: DNA Seq6 (DNA, single strand) TGAAGGAAGGT; experiment: fluorescence polarization; details: 100 mM NaCl, 1 mM MgCl2; 20 mM HEPES, 25 °C; 0.5 μM SMN-C2
[13] = tested on: DNA Seq7 (DNA, single strand) TTAAGGAAGGT; experiment: fluorescence polarization; details: 100 mM NaCl, 1 mM MgCl2; 20 mM HEPES, 25 °C; 0.5 μM SMN-C2
[14] = tested on: DNA Seq9 (DNA, single strand) TTAAGGAAGTT; experiment: fluorescence polarization; details: 100 mM NaCl, 1 mM MgCl2; 20 mM HEPES, 25 °C; 0.5 μM SMN-C2
[15] = tested on: DNA Seq10 (DNA, single strand) TAAAGGAAGGT; experiment: fluorescence polarization; details: 100 mM NaCl, 1 mM MgCl2; 20 mM HEPES, 25 °C; 0.5 μM SMN-C2
[16] = tested on: DNA Seq16 (DNA, single strand) TGAAGGAAAGT; experiment: fluorescence polarization; details: 100 mM NaCl, 1 mM MgCl2; 20 mM HEPES, 25 °C; 0.5 μM SMN-C2
[17] = tested on: RNA Seq4 (RNA, single strand) AAGAAGGAAGGUGC; experiment: fluorescence polarization; details: 100 mM NaCl; 20 mM HEPES, 25 °C, 0.5 μM compound
[18] = tested on: DNA Seq2 (DNA, single strand) GAAGGAAGG; experiment: fluorescence polarization; details: 100 mM NaCl, 1 mM MgCl2; 20 mM HEPES, 25 °C; 0.5 μM SMN-C2
[19] = tested on: DNA S1 (DNA, single strand) AAAAGAAGGAAGGTGCTC; experiment: fluorescence polarization; details: 100 mM NaCl, 1 mM MgCl2; 20 mM HEPES, 25 °C; 0.5 μM SMN-C2
[20] = tested on: DNA S9 (DNA, single strand) AAAATAAGGAAGGTGCTC; experiment: fluorescence polarization; details: 100 mM NaCl, 1 mM MgCl2; 20 mM HEPES, 25 °C; 0.5 μM SMN-C2
[21] = tested on: DNA S18 (DNA, single strand) AAAAGGAGGAAGGTGCTC; experiment: fluorescence polarization; details: 100 mM NaCl, 1 mM MgCl2; 20 mM HEPES, 25 °C; 0.5 μM SMN-C2
[22] = tested on: DNA S19 (DNA, single strand) AAAAGAGGGAAGGTGCTC; experiment: fluorescence polarization; details: 100 mM NaCl, 1 mM MgCl2; 20 mM HEPES, 25 °C; 0.5 μM SMN-C2
[23] = tested on: S2 (DNA, single strand) AAAAGAAGGAAGGAGCAC; experiment: fluorescence polarization; details: 100 mM NaCl, 1 mM MgCl2; 20 mM HEPES, 25 °C, 0.5 μM compound
[24] = tested on: S3 (DNA, single strand) AAAAGAAGGAAGGTGATA; experiment: fluorescence polarization; details: 100 mM NaCl, 1 mM MgCl2; 20 mM HEPES, 25 °C, 0.5 μM compound
[25] = tested on: S5 (DNA, single strand) AAAAGAAUGAAGGTGCTC; experiment: fluorescence polarization; details: 100 mM NaCl, 1 mM MgCl2; 20 mM HEPES, 25 °C, 0.5 μM compound
[26] = tested on: S6 (DNA, single strand) AAAAGAAGGAGGGTGCTC; experiment: fluorescence polarization; details: 100 mM NaCl, 1 mM MgCl2; 20 mM HEPES, 25 °C, 0.5 μM compound
[27] = tested on: S10 (DNA, single strand) AAAAGTAGGAAGGTGCTC; experiment: fluorescence polarization; details: 100 mM NaCl, 1 mM MgCl2; 20 mM HEPES, 25 °C, 0.5 μM compound
[28] = tested on: S11 (DNA, single strand) AAAAGATGGAAGGTGCTC; experiment: fluorescence polarization; details: 100 mM NaCl, 1 mM MgCl2; 20 mM HEPES, 25 °C, 0.5 μM compound
[29] = tested on: S13 (DNA, single strand) AAAAGAAGGTAGGTGCTC; experiment: fluorescence polarization; details: 100 mM NaCl, 1 mM MgCl2; 20 mM HEPES, 25 °C, 0.5 μM compound
[30] = tested on: S14 (DNA, single strand) AAAAGAAGGATGGTGCTC; experiment: fluorescence polarization; details: 100 mM NaCl, 1 mM MgCl2; 20 mM HEPES, 25 °C, 0.5 μM compound
[31] = tested on: S15 (DNA, single strand) AAAAGAAGGAATGTGCTC; experiment: fluorescence polarization; details: 100 mM NaCl, 1 mM MgCl2; 20 mM HEPES, 25 °C, 0.5 μM compound
[32] = tested on: S17 (DNA, single strand) AAAGGAAGGAAGGTGCTC; experiment: fluorescence polarization; details: 100 mM NaCl, 1 mM MgCl2; 20 mM HEPES, 25 °C, 0.5 μM compound
[33] = tested on: S21 (DNA, single strand) AAAAAAAGGAAGGTGCTC; experiment: fluorescence polarization; details: 100 mM NaCl, 1 mM MgCl2; 20 mM HEPES, 25 °C, 0.5 μM compound
[34] = tested on: S23 (DNA, single strand) AAAAGAAGAAAGGTGCTC; experiment: fluorescence polarization; details: 100 mM NaCl, 1 mM MgCl2; 20 mM HEPES, 25 °C, 0.5 μM compound
[35] = tested on: S24 (DNA, single strand) AAAAGAAGGAAAGTGCTC; experiment: fluorescence polarization; details: 100 mM NaCl, 1 mM MgCl2; 20 mM HEPES, 25 °C, 0.5 μM compound
[36] = tested on: S25 (DNA, single strand) AAAAGAAGGAAGATGCTC; experiment: fluorescence polarization; details: 100 mM NaCl, 1 mM MgCl2; 20 mM HEPES, 25 °C, 0.5 μM compound
[37] = tested on: RNA Seq20 (RNA, hairpin) UGAAGGAAGGUUUCGACCUUCCUUCA; experiment: fluorescence polarization; details: 100 mM NaCl; 20 mM HEPES, 25 °C, 0.5 μM compound
[38] = tested on: RNA Seq23 (RNA, mismatch bulge abasic) GCCAGGCGCACUUUCGAGUGCGCGAAGGAAGGCUGGC; experiment: fluorescence polarization; details: 100 mM NaCl; 20 mM HEPES, 25 °C, 0.5 μM compound

Kd [1]: 4.8 µM
Kd [2]: 5.4 µM
Kd [3]: 17.5 ± 2.2 µM
Kd [4]: 42.3 ± 13.3 µM
Kd [5]: > 100 µM
Kd [6]: > 100 µM
Kd [7]: > 100 µM
Kd [8]: 9.4 ± 0.5 µM
Kd [9]: 77.0 ± 26.0 µM
Kd [10]: 48.2 ± 9.0 µM
Kd [11]: 60 ± 36 µM
Kd [12]: 3.1 ± 0.7 µM
Kd [13]: > 100 µM
Kd [14]: > 100 µM
Kd [15]: > 100 µM
Kd [16]: 27.4 ± 6.0 µM
Kd [17]: 21.7 ± 4.3 µM
Kd [18]: 34.3 ± 9.6 µM
Kd [19]: 15.3 ± 0.6 µM
Kd [20]: 56.2 ± 13.9 µM
Kd [21]: > 50 µM
Kd [22]: 21.0 ± 1.1 µM
Kd [23]: 20.2 ± 1.7 µM
Kd [24]: 21.7 ± 2.7 µM
Kd [25]: 42.3 ± 4.2 µM
Kd [26]: 33.3 ± 2.3 µM
Kd [27]: 26.4 ± 2.2 µM
Kd [28]: 26.3 ± 1.2 µM
Kd [29]: 26.4 ± 2.2 µM
Kd [30]: 19.5 ± 2.3 µM
Kd [31]: 31.4 ± 4 µM
Kd [32]: 16.5 ± 1.1 µM
Kd [33]: > > 50 µM
Kd [34]: > > 50 µM
Kd [35]: 36.8 ± 11.4 µM
Kd [36]: 48 ± 7.8 µM
Kd [37]: > >100 μM
Kd [38]: 5.6 ± 1.7 µM
SMILES: CCN1CCN(c2ccc3cc(-c4cn5cc(C)nc(C)c5n4)c(=O)oc3c2)C[C@@H]1C
